Assay results: patent US20200215099A1, “NON-ANTICOAGULANT SULFATED OR SULFONATED POLYSACCHARIDES” (Baxalta Incorporated, priority 2012, published 2020)

Assays:
[1] = system: normal human plasma; test: Activated partial thromboplastin time assay (aPTT); assay type: biochemical; conditions: 50% increase clotting time / CAT EC50
Experimental: The aPTT assay was performed to study anticoagulant activities of NASP. In brief, 50 μL of thawed normal human plasma pool (George King Biomedical, Overland Park, Kans.) was mixed with 5 μL of NASP sample (0-60 μg/mL final plasma concentration). NASPs were diluted in imidazole buffer (3.4 g/L imidazole; 5.85 g/L NaCl, pH 7.4) containing 1% albumin (Baxter, Austria). After addition of 50 μL aPTT reagent (STA APTT, Roche) the samples were incubated for 4 min at 37° C. Clotting was initiated by 50 μL of 25 mM CaCl2 solution (Baxter, Austria) and recorded for up to 5 min. All pipetting steps and clotting time measurements were carried out with an ACL Pro Elite (Instrumentation Laboratory, Bedford, Mass.) instrument. Samples were run in duplicate.
For data analysis, clotting time is plotted against the NASP concentration. Concentrations where the clotting time is 50% increased over the normal plasma control are determined using a linear curve fit.

[2] = molecular target: T1, full-length TFPI (Homo sapiens, UniProt P10646); test: Dilute prothrombin time assay with added TFPI (TFPI-dPT); assay type: biochemical; conditions: normal human plasma
T1 construct: 0.5 μg/mL full-length TFPI (aa 1-276, constitutively produced by SKHep1); made in house; host or cells: SKHep1
T1 sequence (P10646 29-304): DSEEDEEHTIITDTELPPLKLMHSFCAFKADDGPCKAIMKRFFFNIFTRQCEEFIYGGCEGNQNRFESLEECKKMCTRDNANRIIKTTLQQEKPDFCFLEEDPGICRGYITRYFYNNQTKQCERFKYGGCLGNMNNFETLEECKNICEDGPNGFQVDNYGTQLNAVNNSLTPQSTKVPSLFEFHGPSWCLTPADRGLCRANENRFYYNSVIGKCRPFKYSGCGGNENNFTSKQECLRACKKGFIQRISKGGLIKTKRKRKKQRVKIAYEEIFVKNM
Experimental: A dilute prothrombin time assay with added TFPI (TFPI-dPT) was used to evaluate the TFPI-inhibiting effect of the different NASPs. Pooled normal human plasma (George King Biomedical, Overland Park, Kans.) was pre-incubated with 0.5 μg/mL full-length TFPI (aa 1-276, constitutively produced by SKHep1) and the respective NASP (0-5 μg/mL) for 15 min at RT. TF reagent TriniClot PT Excel S (Trinity Biotech, Wicklow, Ireland), diluted in Hepes-buffered saline 1:200 with 0.5% BSA was added to the plasma samples on an ACL Pro Elite hemostasis analyzer (Instrumentation Laboratory, Bedford, Mass.). Clotting was initiated with 25 mM CaCl2). The volume ratio of plasma:TF:CaCl2 was 1:1:1.
For data analysis, TFPI-dPT is plotted against the log concentration. Half maximal effective concentrations (EC50) values are determined using a sigmoidal curve fit.

[3] = system: FVIII-inhibited human whole blood; test: Rotation thromboelastometry (ROTEM); conditions: for Activity: normal blood 100, FVIII-inh. blood 0
Experimental: NASPs (0.4-11 μg/mL) were studied in fresh citrated human whole blood by rotation thromboelastometry (ROTEM), an assay that allows continuous visco-elastic assessment of whole blood clot formation and firmness. Blood was incubated with anti-human FVIII plasma raised in goat (Baxter Bioscience, Austria) at 50 BU/mL to simulate hemophilic conditions. Clotting was triggered with 0.044 pM tissue factor (TF) (PRP reagent, Thrombinoscope BV) in the presence of 40 μg/mL CTI (Haematologic Technologies Inc., Essex Junction, Vt., USA). Then 300 μL of the pre-warmed (37° C.) FVIII-inhibited blood was recalcified with 20 μL of a 0.2 M CaCl2 solution. Clot formation was monitored using a ROTEM instrument (Pentapharm Munich, Germany) at 37° C. The final assay concentration of rTF was 44 fM. The ROTEM recording was started immediately and measured for at least 120 min. Each blood sample was analyzed in two independent measurements.
The thromboelastographic parameters of clotting time (CT), clot formation time (CFT) and maximum clot firmness (MCF) were recorded in accordance with the manufacturer's instructions. The first derivative of the thromboelastogram data is plotted to obtain a graph of velocity (mm/s) against time (s). From this graph, the maximum velocity (maxV) and the time at which the maximum velocity is reached (maxV-t) are also determined.

[4] = system: contact pathway; test: CAT in normal plasma with and without CTI; assay type: biochemical; conditions: normal plasma, 1 pM hTF, 4 μM PL, ±41 μg/mL CTI
[5] = Pharmacokinetics after oral administration; assay type: in vivo, CD rats
Experimental: The preparations were either unfractionated (average MW of 24 kD) or fractionated by a filter method (average MW of 14 kD). The substances were prepared in a physiological saline solution without enhancer or with 0.8 wt % DOC or with 3 wt % chitosan+0.5 mg/mL bromelain. Each group dosed with NASP consisted of six rats. For each formulation, three additional rats served as vehicle controls. Blood samples were collected in the presence of citrate (ratio 1:9) before dosing and 15, 30 min, 1, 5, and 7 h after the dosing. Platelet-poor plasma was prepared by two centrifugation steps at 3000 rpm for 10 min.
The NASPs in the plasma samples were detected by a fluorescence assay that uses the dye HeparinRed that specifically binds to sulfated polysaccharides. Experiments were performed in a black half-area 96-well microtiter plate (Costar). For the S-6-CI standard curves (0.185 to 2.5 μg/mL), 10 μL of rat plasma was spiked with 5 μL of S-6-CI and mixed with 40 μL of human pooled plasma to minimize the matrix effect of individual animals. Then 5 μl HeparinRed dye was added and incubated in the dark at RT for 5 min. Plasma samples of the dosed animals were treated accordingly, however, the 5 μL S-6-CI were replaced by buffer. Fluorescent signals were detected with a Tecan Safire2™ microplate fluorescence reader (Ex/Em 580/620 nm) and the S-6-CI quantified based on the S-6-CI standard curve. […]

sulfated 6-carboxy-icodextrin
Ratio aPTT/CAT [1]: very good
reversal of the effect of rec. FL-TFPI (in words) [2]: reverses the anticoagulant effect of exogenous full-length TFPI
CFT ([3]; +0.41 μg/ml): 388 s
CT ([3]; +0.41 μg/ml): 1542 s
MCF ([3]; +0.41 μg/ml): 62 mm
Activity ([3]; +0.41 μg/ml): 108%
CFT ([3]; +1.23 μg/ml): 172 s
CT ([3]; +1.23 μg/ml): 1078 s
MCF ([3]; +1.23 μg/ml): 63.5 mm
Activity ([3]; +1.23 μg/ml): 129%
CFT ([3]; +3.7 μg/ml): 223 s
CT ([3]; +3.7 μg/ml): 1152 s
MCF ([3]; +3.7 μg/ml): 63 mm
Activity ([3]; +3.7 μg/ml): 125%
CFT ([3]; +11.1 μg/ml): 934 s
CT ([3]; +11.1 μg/ml): 2526 s
Activity ([3]; +11.1 μg/ml): 63%
restoration of coagulation (in words) ([3]; ROTEM, 0.044 pM TF): restores coagulation in FVIII-inhibited whole blood
concentration activating the contact pathway [4]: > 33 µg/mL
time of highest plasma level after dosing ([5]; oral 50 mg/kg): 60 min
plasma levels at all time points ([5]; oral 50 mg/kg with chitosan+bromelain): < 0.3 µg/mL
